Source: US20240016938A1, “METHODS FOR INCREASING THE BIOAVAILABILITY OF NUCLEOSIDE MEDICINAL AGENTS” (ZOGENIX MDS, INC., priority 2022, published 2024)
Each block holds one compound with its values, some of them ahead of it.

Test: Pooled population PK analysis of dC and dT (five studies: healthy volunteers, renal impairment, TK2d participants)
Conditions: human, in vivo
Procedure: A phase 2 study was conducted as an open-label continuation of treatment with MT1621 in participants with TK2designed to evaluate the safety, tolerability, and PK of MT1621 (fixed dose combination of dC and dT supplied in a single packet). The study enrolled forty-seven (47) participants. After enrollment, participants transitioned from their current chemical grade 2′-deoxycytidine monophosphate/2′-deoxythymidine monophosphate (dCMP/dTMP) to deoxycytidine and deoxythymidine, or continued the use of deoxycytidine and deoxythymidine. Upon enrollment, participants who were on a stable maintenance dose of 400 mg/kg/day were treated with the same dose of deoxycytidine and deoxythymidine three-times daily (TID). Study participants who were on a total dose <400 mg/kg/day were transitioned to either 260 mg/kg/day (130 mg/kg/day of deoxycytidine and 130 mg/kg/day of deoxythymidine) TID, 520 mg/kg/day (260 mg/kg/day of deoxycytidine and 260 mg/kg/day of deoxythymidine) TID, or 800 mg/kg/day (400 mg/kg/day of deoxycytidine and 400 mg/kg/day of deoxythymidine) TID, depending on which was closest to the participants' previous dose.
The early protocol for deoxycytidine and deoxythymidine administration was for the participants to take the drug product without regard to food. […] Later in the program, when an unexpected effect of food on PK was noted, the protocol was amended to instruct the participants to take the drug product with food. By then, planned PK samples had been taken in a majority of the participants. A total of 3 blood samples were collected from each individual following study Day 1 to measure dC plasma concentrations. Sparse PK blood sampling and PD endpoint collection was conducted according to the following schedule: at Month 1 sampled 0.5, 1, 2, or 3 hours post-dose; and at Month 3 sampled 8, 10, 12, or 14 hours post-dose. During sampling, it was noted whether food was consumed from 1 hour pre-dose to 2 hours post-dose. And, the lower limit of quantification (LLOQ) was 0.5 ng/mL for both dC and dT.
For the calculation of the PK parameters, raw (unadjusted) plasma dC and dT concentrations below the limit of quantitation (BLQ) were set to 1% the limit of quantitation (LOQ) of the assay. […] Since all participants had measurable pre-dose concentrations, Kel and associated PK parameters were not calculated for unadjusted data.
Analysis of the PK data pooled from five (5) studies (including those described in Examples 1 and 2) comprising three (3) Phase 1 studies in healthy volunteers (HV) and two (2) open-label Phase 2 studies that included both adult and pediatric study participants with TK2d. A total of 119 study participants were included, which consisted of 44 healthy study participants, 16 study participants with renal impairment (moderate or severe), and 59 participants with TK2d that included participants aged from 0.9 years to 75.6 year of age.
Pooled population PK analysis confirmed that the fed state was a statistically significant covariate of the PK of dC including the TK2 deficient participants. Table 6 reflects analysis of all dC PK data including those for TK2 deficient participants. […] This is the pertinent value to estimate food effect on dC exposures. […] The decrease in the rate of dC absorption with food (parameter Ka in Table 6) is believed to be due to slower gastric/intestinal motility in the fed state. It is likely that the effect of food on dT concentration in participants with TK2 deficiency was masked by the high variability and limited PK sampling.

CL/F, apparent clearance: Bootstrap Median [2.5th-97.5th percentile]: 392000 (318000, 492000) L/h | CL/F, apparent clearance: NONMEM Estimate (% RSE): 392000 (11.0%) L/h | IIV on BSL: Bootstrap Median [2.5th-97.5th percentile]: 26.9% (19.4%, 35.3%) | IIV on BSL: NONMEM Estimate (% RSE): 27.3% (15.0%) CV % | IIV on CL/F: Bootstrap Median [2.5th-97.5th percentile]: 60.3% (36.2%, 82.3%) | IIV on CL/F: NONMEM Estimate (% RSE): 61.6% (18.0%) CV% | IIV on F: Bootstrap Median [2.5th-97.5th percentile]: 73.3% (37.8%, 102%) | IIV on F: NONMEM Estimate (% RSE): 75.1% (19.8%) CV % | IIV on Ka: Bootstrap Median [2.5th-97.5th percentile]: 62.6% (36.1%, 81.8%) | IIV on Ka: NONMEM Estimate (% RSE): 65.9% (13.6%) CV % | IIV on V/F: Bootstrap Median [2.5th-97.5th percentile]: 77.9% (39.3%, 107%) | IIV on V/F: NONMEM Estimate (% RSE): 77.3% (18.0%) CV % | IOV on F: Bootstrap Median [2.5th-97.5th percentile]: 31.4% (26.3%, 37.9%) | IOV on F: NONMEM Estimate (% RSE): 31.5% (8.01%) CV % | Ka, absorption rate constant: Bootstrap Median [2.5th-97.5th percentile]: 0.465 (0.361, 0.638) h^−1 | Ka, absorption rate constant: NONMEM Estimate (% RSE): 0.466 (11.5%) h^−1 | Proportional RUV: Bootstrap Median [2.5th-97.5th percentile]: 17.4% (16.1%, 18.8%) | Proportional RUV: NONMEM Estimate (% RSE): 17.5% (3.76%) | V/F, apparent volume of distribution: NONMEM Estimate (% RSE): 284000 (19.9%) L | Vd/F: 278000 L | dC BSL, dC endogenous baseline level: Bootstrap Median [2.5th-97.5th percentile]: 3.45 (3.21, 3.65) ng/mL | dC BSL, dC endogenous baseline level: NONMEM Estimate (% RSE): 3.45 (3.29%) ng/mL | decrease of absorption rate constant (Ka) with food intake: ~44% | difference in F between HV and TK2 deficient participants: No difference in F was detected | endogenous baseline across studies and populations: the same across studies and populations
Compound: Nc1ccn([C@H]2C[C@H](O)[C@@H](CO)O2)c(=O)n1 [dC, β-D-2′-deoxycytidine]

F lower in healthy volunteers compared to TK2 deficient participants: 70-90% | bioavailability: ~83% | decrease of F in Latino/Hispanic population: ~50% | decrease of absorption rate constant from first input compartment (K12) with high-fat content meal: ~80% | decrease of lag time from second input compartment (ALAG3) with high-fat content meal: ~80% | dose proportionality of exposures following single ascending doses: more than dose proportional | endogenous baseline across studies: 0.220 to 1.14 ng/mL | increase of F with a high-fat content meal: ~120%
Compound: Cc1cn([C@H]2C[C@H](O)[C@@H](CO)O2)c(=O)[nH]c1=O [dT, β-D-2′-deoxythymidine]
